In the kinase profiling compilation of Christmann-Franck et al. (2016):

What was measured:
Test in all cases: Caliper, Mobility shift assay off-chip
[1] = molecular target: PDGFRB (human) (UniProt P09619)
[2] = molecular target: RPS6KA4 KD1 KD2 (human) (UniProt O75676)
[3] = molecular target: MAPK13 (human) (UniProt O15264)
[4] = molecular target: RPS6KA2 KD1 KD2 (human) (UniProt Q15349)
[5] = molecular target: PDPK1 (human) (UniProt O15530)
[6] = molecular target: ROCK2 (human) (UniProt O75116)
[7] = molecular target: PDK4 (human) (UniProt Q16654)
[8] = molecular target: HIPK2 (human) (UniProt Q9H2X6)
[9] = molecular target: EPHA5 (human) (UniProt P54756)
[10] = molecular target: MARK3 (human) (UniProt P27448)
[11] = molecular target: ERBB2 (human) (UniProt P04626)
[12] = molecular target: CAMK2G (human) (UniProt Q13555)
[13] = molecular target: NEK2 (human) (UniProt P51955)
[14] = molecular target: MAPK1 (human) (UniProt P28482)
[15] = molecular target: CAMK2D (human) (UniProt Q13557)
[16] = molecular target: CSNK1G3 (human) (UniProt Q9Y6M4)
[17] = molecular target: MAPK3 (human) (UniProt P27361)
[18] = molecular target: PRKACB (human) (UniProt P22694)
[19] = molecular target: WNK3 (human) (UniProt Q9BYP7)
[20] = molecular target: RPS6KB2 (human) (UniProt Q9UBS0)
[21] = molecular target: ERBB4 (human) (UniProt Q15303)
[22] = molecular target: TXK (human) (UniProt P42681)
[23] = molecular target: NEK6 (human) (UniProt Q9HC98)
[24] = molecular target: SIK2 (human) (UniProt Q9H0K1)
[25] = molecular target: AKT2 (human) (UniProt P31751)
[26] = molecular target: PLK3 (human) (UniProt Q9H4B4)
[27] = molecular target: TAOK2 (human) (UniProt Q9UL54)
[28] = molecular target: RPS6KB1 (human) (UniProt P23443)
[29] = molecular target: PRKCQ (human) (UniProt Q04759)
[30] = molecular target: DDR1 (human) (UniProt Q08345)
[31] = molecular target: PDK2 (human) (UniProt Q15119)
[32] = molecular target: TEC (human) (UniProt P42680)
[33] = molecular target: YES1 (human) (UniProt P07947)
[34] = molecular target: CDK9 (human) (UniProt P50750)
Chain of CDK9 (human) (P50750 whole entry, looked up): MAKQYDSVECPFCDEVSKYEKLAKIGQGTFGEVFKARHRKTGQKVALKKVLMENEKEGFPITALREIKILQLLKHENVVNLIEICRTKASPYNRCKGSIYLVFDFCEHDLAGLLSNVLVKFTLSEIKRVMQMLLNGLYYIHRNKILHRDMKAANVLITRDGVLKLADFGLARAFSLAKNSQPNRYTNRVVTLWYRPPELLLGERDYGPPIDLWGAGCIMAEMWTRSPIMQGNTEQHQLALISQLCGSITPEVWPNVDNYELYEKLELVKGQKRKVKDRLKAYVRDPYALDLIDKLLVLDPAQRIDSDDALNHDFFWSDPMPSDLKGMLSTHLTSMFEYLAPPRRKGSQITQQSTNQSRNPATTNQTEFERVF

Chain of MARK3 (human) (P27448 whole entry, looked up): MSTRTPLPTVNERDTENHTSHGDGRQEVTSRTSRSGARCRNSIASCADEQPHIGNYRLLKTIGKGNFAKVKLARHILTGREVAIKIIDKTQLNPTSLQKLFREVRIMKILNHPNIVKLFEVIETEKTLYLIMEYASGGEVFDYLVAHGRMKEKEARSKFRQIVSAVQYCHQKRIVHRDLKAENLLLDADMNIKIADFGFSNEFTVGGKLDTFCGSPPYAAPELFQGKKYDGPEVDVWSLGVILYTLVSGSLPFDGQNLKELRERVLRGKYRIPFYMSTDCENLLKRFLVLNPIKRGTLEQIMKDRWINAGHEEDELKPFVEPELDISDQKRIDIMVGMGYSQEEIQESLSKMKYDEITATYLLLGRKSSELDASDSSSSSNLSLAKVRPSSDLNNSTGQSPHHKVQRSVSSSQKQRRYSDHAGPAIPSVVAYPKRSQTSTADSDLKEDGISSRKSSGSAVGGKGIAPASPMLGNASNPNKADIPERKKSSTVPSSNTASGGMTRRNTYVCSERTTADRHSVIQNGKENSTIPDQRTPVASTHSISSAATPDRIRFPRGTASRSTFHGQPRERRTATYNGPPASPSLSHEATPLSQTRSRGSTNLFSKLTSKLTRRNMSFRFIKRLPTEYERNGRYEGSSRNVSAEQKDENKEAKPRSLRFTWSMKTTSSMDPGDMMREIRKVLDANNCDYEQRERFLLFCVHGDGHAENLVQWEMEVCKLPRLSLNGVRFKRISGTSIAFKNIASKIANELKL
Chain of CAMK2D (human) (Q13557 whole entry, looked up): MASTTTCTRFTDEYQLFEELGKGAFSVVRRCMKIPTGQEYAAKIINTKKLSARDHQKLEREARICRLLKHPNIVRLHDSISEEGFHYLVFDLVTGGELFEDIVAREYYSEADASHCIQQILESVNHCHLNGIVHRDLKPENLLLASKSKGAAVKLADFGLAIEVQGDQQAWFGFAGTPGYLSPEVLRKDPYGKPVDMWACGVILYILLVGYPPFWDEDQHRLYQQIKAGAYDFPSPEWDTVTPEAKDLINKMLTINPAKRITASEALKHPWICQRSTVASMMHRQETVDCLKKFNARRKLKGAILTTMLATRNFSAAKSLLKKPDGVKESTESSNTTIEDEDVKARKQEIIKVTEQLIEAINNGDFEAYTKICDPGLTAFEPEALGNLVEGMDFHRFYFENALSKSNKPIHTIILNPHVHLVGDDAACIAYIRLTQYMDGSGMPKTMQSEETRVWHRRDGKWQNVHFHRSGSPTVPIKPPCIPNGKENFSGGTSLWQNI
Chain of YES1 (human) (P07947 whole entry, looked up): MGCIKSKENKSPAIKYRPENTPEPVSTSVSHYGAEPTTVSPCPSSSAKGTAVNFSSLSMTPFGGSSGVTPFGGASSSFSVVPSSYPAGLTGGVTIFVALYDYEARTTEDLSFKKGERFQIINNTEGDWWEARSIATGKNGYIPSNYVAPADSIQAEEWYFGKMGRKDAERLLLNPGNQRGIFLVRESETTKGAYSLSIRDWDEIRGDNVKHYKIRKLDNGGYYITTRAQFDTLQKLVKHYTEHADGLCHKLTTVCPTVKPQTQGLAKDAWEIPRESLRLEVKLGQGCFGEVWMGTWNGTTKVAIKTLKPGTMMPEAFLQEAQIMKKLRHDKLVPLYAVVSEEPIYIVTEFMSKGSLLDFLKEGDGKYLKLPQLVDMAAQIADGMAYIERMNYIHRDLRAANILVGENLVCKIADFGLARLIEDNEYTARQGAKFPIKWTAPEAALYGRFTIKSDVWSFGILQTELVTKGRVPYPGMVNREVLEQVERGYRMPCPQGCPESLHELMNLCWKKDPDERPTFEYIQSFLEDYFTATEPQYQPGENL
Chain of SIK2 (human) (Q9H0K1 whole entry, looked up): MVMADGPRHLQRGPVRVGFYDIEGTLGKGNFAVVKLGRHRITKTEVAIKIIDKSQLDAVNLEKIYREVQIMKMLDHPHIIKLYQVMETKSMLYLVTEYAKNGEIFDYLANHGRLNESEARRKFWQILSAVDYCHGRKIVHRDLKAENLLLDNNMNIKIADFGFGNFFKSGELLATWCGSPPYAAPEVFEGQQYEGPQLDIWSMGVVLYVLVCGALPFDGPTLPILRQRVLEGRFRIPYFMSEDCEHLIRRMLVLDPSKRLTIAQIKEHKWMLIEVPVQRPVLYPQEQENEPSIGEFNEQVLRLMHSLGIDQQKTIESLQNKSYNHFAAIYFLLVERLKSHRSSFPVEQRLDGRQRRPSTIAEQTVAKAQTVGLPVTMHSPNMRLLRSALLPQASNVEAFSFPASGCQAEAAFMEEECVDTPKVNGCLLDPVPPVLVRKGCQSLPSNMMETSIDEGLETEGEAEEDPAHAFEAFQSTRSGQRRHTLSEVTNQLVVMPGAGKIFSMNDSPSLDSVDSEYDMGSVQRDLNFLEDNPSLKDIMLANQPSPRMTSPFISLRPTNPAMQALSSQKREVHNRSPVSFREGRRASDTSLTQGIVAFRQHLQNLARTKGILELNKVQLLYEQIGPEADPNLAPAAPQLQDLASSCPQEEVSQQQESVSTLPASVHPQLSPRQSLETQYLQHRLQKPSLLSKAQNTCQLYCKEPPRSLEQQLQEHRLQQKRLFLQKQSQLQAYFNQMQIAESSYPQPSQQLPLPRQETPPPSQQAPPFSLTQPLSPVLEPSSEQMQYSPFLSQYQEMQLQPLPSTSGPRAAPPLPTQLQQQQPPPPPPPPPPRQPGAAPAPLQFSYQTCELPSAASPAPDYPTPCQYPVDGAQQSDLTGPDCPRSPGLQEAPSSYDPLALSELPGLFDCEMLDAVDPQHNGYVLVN
Chain of NEK2 (human) (P51955 whole entry, looked up): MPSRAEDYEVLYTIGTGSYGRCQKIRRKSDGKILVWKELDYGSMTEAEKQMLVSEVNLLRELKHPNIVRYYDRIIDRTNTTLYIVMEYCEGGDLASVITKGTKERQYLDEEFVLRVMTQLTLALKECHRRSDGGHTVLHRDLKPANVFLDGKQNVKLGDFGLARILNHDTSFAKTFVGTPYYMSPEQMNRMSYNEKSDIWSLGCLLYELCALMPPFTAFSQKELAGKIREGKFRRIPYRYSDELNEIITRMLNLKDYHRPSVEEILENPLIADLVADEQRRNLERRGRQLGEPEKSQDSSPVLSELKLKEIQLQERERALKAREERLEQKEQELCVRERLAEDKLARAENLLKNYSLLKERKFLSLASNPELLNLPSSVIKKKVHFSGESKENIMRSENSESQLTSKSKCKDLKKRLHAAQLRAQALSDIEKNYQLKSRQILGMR
Chain of ERBB4 (human) (Q15303 whole entry, looked up): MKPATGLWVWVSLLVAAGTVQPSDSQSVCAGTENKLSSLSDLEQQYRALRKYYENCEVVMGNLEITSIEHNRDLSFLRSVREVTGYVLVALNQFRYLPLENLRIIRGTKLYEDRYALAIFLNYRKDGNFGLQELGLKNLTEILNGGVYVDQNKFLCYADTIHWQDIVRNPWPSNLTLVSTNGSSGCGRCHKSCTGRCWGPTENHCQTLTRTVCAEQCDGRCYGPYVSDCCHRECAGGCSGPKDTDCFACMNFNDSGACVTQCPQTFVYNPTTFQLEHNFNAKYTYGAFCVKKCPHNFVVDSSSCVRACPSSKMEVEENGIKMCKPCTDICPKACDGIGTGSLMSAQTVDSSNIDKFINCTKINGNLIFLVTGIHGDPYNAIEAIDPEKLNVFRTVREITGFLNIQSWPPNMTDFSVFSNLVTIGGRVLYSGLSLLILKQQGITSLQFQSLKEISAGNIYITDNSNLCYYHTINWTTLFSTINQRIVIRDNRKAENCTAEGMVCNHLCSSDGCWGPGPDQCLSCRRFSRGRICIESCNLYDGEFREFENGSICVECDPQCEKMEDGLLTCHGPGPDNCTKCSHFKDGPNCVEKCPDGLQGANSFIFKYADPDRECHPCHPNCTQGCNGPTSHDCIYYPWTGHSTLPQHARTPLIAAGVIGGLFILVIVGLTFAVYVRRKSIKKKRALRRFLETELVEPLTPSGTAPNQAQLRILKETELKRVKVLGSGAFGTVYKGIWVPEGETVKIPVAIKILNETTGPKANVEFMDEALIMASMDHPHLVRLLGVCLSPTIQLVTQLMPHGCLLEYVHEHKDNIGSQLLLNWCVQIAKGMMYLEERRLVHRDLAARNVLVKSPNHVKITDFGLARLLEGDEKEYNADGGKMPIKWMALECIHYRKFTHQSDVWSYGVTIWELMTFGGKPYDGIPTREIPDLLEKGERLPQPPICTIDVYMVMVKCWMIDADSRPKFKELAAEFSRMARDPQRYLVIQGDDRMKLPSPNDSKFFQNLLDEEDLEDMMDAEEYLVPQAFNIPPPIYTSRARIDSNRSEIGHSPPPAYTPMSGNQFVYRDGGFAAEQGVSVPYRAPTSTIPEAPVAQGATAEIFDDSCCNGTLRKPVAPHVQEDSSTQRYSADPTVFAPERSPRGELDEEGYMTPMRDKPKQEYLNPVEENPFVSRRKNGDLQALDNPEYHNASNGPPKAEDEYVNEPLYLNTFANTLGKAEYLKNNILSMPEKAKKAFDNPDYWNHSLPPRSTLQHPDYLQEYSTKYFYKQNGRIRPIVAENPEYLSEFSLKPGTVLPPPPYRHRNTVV

Cc1ccc(Nc2nccc(N(C)c3ccc4c(C)n(C)nc4c3)n2)cc1S(N)(=O)=O
inhibition ([1]; compound 0.02 µM): 36.7% | inhibition ([1]; compound 0.2 µM): 81.4% | inhibition ([2]; compound 0.02 µM): -2.4% | inhibition ([2]; compound 0.2 µM): 3.7% | inhibition ([3]; compound 0.02 µM): -3.6% | inhibition ([3]; compound 0.2 µM): -3.8% | inhibition ([4]; compound 0.02 µM): 6.3% | inhibition ([4]; compound 0.2 µM): 8.4% | inhibition ([5]; compound 0.02 µM): -5% | inhibition ([5]; compound 0.2 µM): -3.3% | inhibition ([6]; compound 0.02 µM): -3.7% | inhibition ([6]; compound 0.2 µM): -1.3% | inhibition ([7]; compound 0.02 µM): -0.5% | inhibition ([7]; compound 0.2 µM): 0.8% | inhibition ([8]; compound 0.02 µM): 1.4% | inhibition ([8]; compound 0.2 µM): 3.3% | inhibition ([9]; compound 0.02 µM): -2.7% | inhibition ([9]; compound 0.2 µM): 4.7% | inhibition ([10]; compound 0.02 µM): 1.7% | inhibition ([10]; compound 0.2 µM): -3.6% | inhibition ([11]; compound 0.02 µM): 0% | inhibition ([11]; compound 0.2 µM): -1.5% | inhibition ([12]; compound 0.02 µM): 1.9% | inhibition ([12]; compound 0.2 µM): 2% | inhibition ([13]; compound 0.02 µM): 5.4% | inhibition ([13]; compound 0.2 µM): 12% | inhibition ([14]; compound 0.02 µM): -10.8% | inhibition ([14]; compound 0.2 µM): -6.6% | inhibition ([15]; compound 0.02 µM): 4.9% | inhibition ([15]; compound 0.2 µM): 4.6% | inhibition ([16]; compound 0.02 µM): 0.7% | inhibition ([16]; compound 0.2 µM): -0.3% | inhibition ([17]; compound 0.02 µM): -5% | inhibition ([17]; compound 0.2 µM): -2.7% | inhibition ([18]; compound 0.02 µM): -1.5% | inhibition ([18]; compound 0.2 µM): -7.3% | inhibition ([19]; compound 0.02 µM): -0.8% | inhibition ([19]; compound 0.2 µM): 3.2% | inhibition ([20]; compound 0.02 µM): 4.3% | inhibition ([20]; compound 0.2 µM): 6.7% | inhibition ([21]; compound 0.02 µM): 8.4% | inhibition ([21]; compound 0.2 µM): 2.6% | inhibition ([22]; compound 0.02 µM): 3.3% | inhibition ([22]; compound 0.2 µM): 27.4% | inhibition ([23]; compound 0.02 µM): -4.8% | inhibition ([23]; compound 0.2 µM): -1.2% | inhibition ([24]; compound 0.02 µM): 1.3% | inhibition ([24]; compound 0.2 µM): 5.7% | inhibition ([25]; compound 0.02 µM): 4.7% | inhibition ([25]; compound 0.2 µM): 3% | inhibition ([26]; compound 0.02 µM): 5.4% | inhibition ([26]; compound 0.2 µM): 5.7% | inhibition ([27]; compound 0.02 µM): 3.7% | inhibition ([27]; compound 0.2 µM): 22.3% | inhibition ([28]; compound 0.02 µM): 11.1% | inhibition ([28]; compound 0.2 µM): 20.6% | inhibition ([29]; compound 0.02 µM): 1.7% | inhibition ([29]; compound 0.2 µM): 0.5% | inhibition ([30]; compound 0.02 µM): 19.6% | inhibition ([30]; compound 0.2 µM): 80.9% | inhibition ([31]; compound 0.02 µM): -2.3% | inhibition ([31]; compound 0.2 µM): -4.2% | inhibition ([32]; compound 0.02 µM): 4.8% | inhibition ([32]; compound 0.2 µM): 19.7% | inhibition ([33]; compound 0.02 µM): 13.3% | inhibition ([33]; compound 0.2 µM): 44.3% | inhibition ([34]; compound 0.02 µM): -2.5% | inhibition ([34]; compound 0.2 µM): 5.1%

CCN(CC)CCNC(=O)c1c(C)[nH]c(/C=C2\C(=O)Nc3ccc(F)cc32)c1C
inhibition ([1]; compound 0.2 µM): 98.9% | inhibition ([1]; compound 4.0 µM): 102% | inhibition ([2]; compound 0.2 µM): 15.5% | inhibition ([2]; compound 4.0 µM): 73.7% | inhibition ([3]; compound 0.2 µM): -3.4% | inhibition ([3]; compound 4.0 µM): -4.3% | inhibition ([5]; compound 0.2 µM): -0.3% | inhibition ([5]; compound 4.0 µM): 36.5% | inhibition ([6]; compound 0.2 µM): 20% | inhibition ([6]; compound 4.0 µM): 76.7% | inhibition ([7]; compound 0.2 µM): 1.6% | inhibition ([7]; compound 4.0 µM): 22.6% | inhibition ([8]; compound 0.2 µM): 74.2% | inhibition ([8]; compound 4.0 µM): 99.3% | inhibition ([9]; compound 0.2 µM): 6.7% | inhibition ([9]; compound 4.0 µM): 50.8% | inhibition ([10]; compound 0.2 µM): 77.4% | inhibition ([10]; compound 4.0 µM): 99% | inhibition ([11]; compound 0.2 µM): -3.2% | inhibition ([11]; compound 4.0 µM): -2.9% | inhibition ([12]; compound 0.2 µM): 49.6% | inhibition ([12]; compound 4.0 µM): 96.2% | inhibition ([13]; compound 0.2 µM): 8.3% | inhibition ([13]; compound 4.0 µM): 49.2% | inhibition ([14]; compound 0.2 µM): -7.5% | inhibition ([14]; compound 4.0 µM): -1.7% | inhibition ([15]; compound 0.2 µM): 88.8% | inhibition ([15]; compound 4.0 µM): 100% | inhibition ([17]; compound 0.2 µM): -4.8% | inhibition ([17]; compound 4.0 µM): -0.9% | inhibition ([18]; compound 0.2 µM): -0.1% | inhibition ([18]; compound 4.0 µM): 48.3% | inhibition ([19]; compound 0.2 µM): 1.8% | inhibition ([19]; compound 4.0 µM): 2.4% | inhibition ([20]; compound 0.2 µM): 15.7% | inhibition ([20]; compound 4.0 µM): 50% | inhibition ([21]; compound 0.2 µM): -0.9% | inhibition ([21]; compound 4.0 µM): 33.9% | inhibition ([22]; compound 0.2 µM): 6.1% | inhibition ([22]; compound 4.0 µM): 43% | inhibition ([23]; compound 0.2 µM): -1.5% | inhibition ([23]; compound 4.0 µM): -6.8% | inhibition ([24]; compound 0.2 µM): 46.8% | inhibition ([24]; compound 4.0 µM): 94.5% | inhibition ([26]; compound 0.2 µM): 0.9% | inhibition ([26]; compound 4.0 µM): 0.1% | inhibition ([27]; compound 0.2 µM): 3.8% | inhibition ([27]; compound 4.0 µM): 18.6% | inhibition ([28]; compound 0.2 µM): 66.4% | inhibition ([28]; compound 4.0 µM): 96.6% | inhibition ([29]; compound 0.2 µM): 1.3% | inhibition ([29]; compound 4.0 µM): 31.2% | inhibition ([30]; compound 0.2 µM): 71.8% | inhibition ([30]; compound 4.0 µM): 96.6% | inhibition ([31]; compound 0.2 µM): -1.2% | inhibition ([31]; compound 4.0 µM): 26% | inhibition ([32]; compound 0.2 µM): 7.6% | inhibition ([32]; compound 4.0 µM): 31.6% | inhibition ([33]; compound 0.2 µM): 96.9% | inhibition ([33]; compound 4.0 µM): 101% | inhibition ([34]; compound 0.2 µM): -0.1% | inhibition ([34]; compound 4.0 µM): 47.5%
